Assay results: patent publication US12371400B2, “Cathepsin inhibitors” (ACADEMISCH ZIEKENHUIS LEIDEN (H.O.D.N. LUMC), priority 2017, dated 2025)
“Also recorded” adds a separate entry of the source. Like-named read-outs stand apart in the source and are kept apart here.

Columns and labels:
hCatK [1] = target: T1, hCatK (Homo sapiens, UniProt P43235); assay: In vitro inhibition of purified human Cathepsin K (fluorogenic substrate Z-FR-AMC); assay type: biochemical; settings: for IC50: purified human Cathepsin, 30 min incubation with inhibitor, mean ± SD, triplicate
T1 sequence (P43235 115-329): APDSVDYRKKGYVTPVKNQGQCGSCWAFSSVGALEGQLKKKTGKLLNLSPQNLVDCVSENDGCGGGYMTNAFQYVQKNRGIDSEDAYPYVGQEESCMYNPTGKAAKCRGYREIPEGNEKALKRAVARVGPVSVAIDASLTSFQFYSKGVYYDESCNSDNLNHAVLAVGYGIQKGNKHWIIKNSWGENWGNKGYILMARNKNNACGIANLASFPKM
Description: (§1) Cathepsin (e.g. Cathepsin K/L/V/S/B), in particular purified human Cathepsin, was diluted in freshly prepared reaction buffer consisting of 50 mM MES pH 5.5, 25 mM EDTA and 2.5 mM DTT. 0.05% Tween20 (v/v) may be added to the reaction buffer of the Cathepsin K.
(§2) Activity assays may be conducted in a suitable manner. In the experiments described herein, the assays were typically conducted in Corning 3820 Low Volume 384 Well Assay Plate with a final assay volume of 20 μL. Plates were shaken at 600 rpm for 1 minute and centrifuged at 1000 rpm for 1 minute prior to incubation. Cathepsin activity was quantified using synthetic fluorogenic peptide substrate Z-FR-AMC (Cath K, L, V), Z-RR-AMC (Cath B) or Z-FVR-AMC (Cath S). Fluorescence intensity (λex=350 nm, λem=440 nm) was measured every 2 minutes in arbitrary units (A.U.) on a CLARIOstar (BMG Labtech) microplate reader and values were converted to product formation [AMC]. […] Measurements were performed in triplicate.
(§3) Inhibitors (200 nL, 100× final concentration in DMSO) were diluted in reaction buffer (10 μL). Purified human Cathepsin (5 μL, 4× final concentration) was added and the reaction mixture was incubated for 30 min at room temperature. Fluorogenic substrate (5 μL, 4× final concentration) was added and fluorescence intensity was measured every 2 minutes for 30-90 minutes.
(§4) The potency of the compounds as CatK inhibitors was assessed in an in vitro inhibition assay on purified human CatK (Table 2). Cathepsin was incubated with inhibitor, and the hydrolysis of substrate was initiated by addition of substrate.

hCatS = hCatS (Homo sapiens, UniProt P25774); assay: In vitro inhibition of purified human Cathepsin S (Z-FVR-AMC); assay type: biochemical; settings: 30 min incubation with inhibitor, mean ± SD, triplicate
Sequence of hCatS (P25774 115-331): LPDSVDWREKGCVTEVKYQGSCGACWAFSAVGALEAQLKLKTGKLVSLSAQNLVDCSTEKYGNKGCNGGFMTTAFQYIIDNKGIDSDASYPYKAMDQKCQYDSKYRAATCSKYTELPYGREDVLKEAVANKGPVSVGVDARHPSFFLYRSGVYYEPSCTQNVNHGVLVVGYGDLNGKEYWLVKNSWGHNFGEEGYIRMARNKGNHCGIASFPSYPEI
Description: as §1, §2, §3, §4

hCatV = hCatV (Homo sapiens, UniProt O60911); assay: In vitro inhibition of purified human Cathepsin V (Z-FR-AMC); assay type: biochemical; settings: 30 min incubation with inhibitor, mean ± SD, triplicate
Sequence of hCatV (O60911 114-334): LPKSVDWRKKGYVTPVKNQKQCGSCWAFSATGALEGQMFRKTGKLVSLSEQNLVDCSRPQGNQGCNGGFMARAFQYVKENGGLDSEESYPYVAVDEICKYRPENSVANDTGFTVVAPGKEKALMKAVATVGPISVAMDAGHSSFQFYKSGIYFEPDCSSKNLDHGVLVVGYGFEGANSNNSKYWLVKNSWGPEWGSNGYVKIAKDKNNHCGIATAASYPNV
Description: as §1
as §2, with “In the experiments described herein, the assays were typically conducted in Corning 3820 Low Volume 384 Well Assay Plate with a final assay volume of 20 μL.” left out
as §3, §4

hCatL = hCatL (Homo sapiens, UniProt P07711); assay: In vitro inhibition of purified human Cathepsin L (Z-FR-AMC); assay type: biochemical; settings: 30 min incubation with inhibitor, mean ± SD, triplicate
Sequence of hCatL (P07711 114-333): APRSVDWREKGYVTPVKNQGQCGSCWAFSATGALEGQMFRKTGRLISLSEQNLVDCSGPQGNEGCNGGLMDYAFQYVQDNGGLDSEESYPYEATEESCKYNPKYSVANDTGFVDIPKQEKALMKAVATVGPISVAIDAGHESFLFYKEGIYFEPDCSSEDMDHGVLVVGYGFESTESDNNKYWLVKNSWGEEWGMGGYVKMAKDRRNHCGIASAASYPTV
Description: as §1
as §2, with “In the experiments described herein, the assays were typically conducted in Corning 3820 Low Volume 384 Well Assay Plate with a final assay volume of 20 μL.” left out
as §3, §4

hCatB = hCatB (Homo sapiens, UniProt P07858); assay: In vitro inhibition of purified human Cathepsin B (Z-RR-AMC); assay type: biochemical; settings: 30 min incubation with inhibitor, mean ± SD, triplicate
Description: as §1
as §2, with “In the experiments described herein, the assays were typically conducted in Corning 3820 Low Volume 384 Well Assay Plate with a final assay volume of 20 μL.” left out
as §3, §4

hCatK [2] = target: T1, hCatK; assay: Jump dilution assay for reversibility of hCatK inhibition; assay type: biochemical; settings: 300× dilution into fluorogenic substrate solution
Description: FIG. 3 provides a schematic overview of a jump dilution assay. A) Dose response curve for a 300-fold dilution of inhibitor concentration from full inhibition to full activity. B) Protocol and concentrations for incubation and dilution. C) Progress curves for hCatK proteolytic activity with inhibitor compounds ODN, 4, 5, 6 after dilution.
Reversibility of protease inhibition by an inhibitor may be assessed in a jump dilution assay. An exemplary jump dilution assay is provided in R. A. Copeland, A. Basavapathruni, M. Moyer, M. P. Scott, Anal. Biochem. 2011, 416, 206. In a jump dilution assay the protease (e.g. CatK) is incubated with inhibitor at high concentration to allow full active site occupation, and subsequently diluted, e.g. 300×, into fluorogenic substrate solution resulting in an inhibitor concentration corresponding with full protease activity. The hydrolysis of fluorogenic substrate is monitored over an extended time period, e.g. at least 60 minutes. […] The assay results may be compared with the results using a known irreversible inhibitor of the protease as a control. E-64 represents an established pan-Cathepsin irreversible inhibitor, suitable for use as a positive control with most cysteine protease Cathepsins.
Reversibility of hCatK inhibition was assessed in a jump dilution assay. Established pan-Cathepsin inhibitor E-64 was taken along as a control for irreversible inhibition. Purified hCatK was incubated with inhibitors at high concentration to allow full active site occupation, and subsequently diluted 300× into fluorogenic substrate solution resulting in an inhibitor concentration corresponding with full activity (FIG. 3).

hCatK [3] = target: T1, hCatK; assay: Kinetic evaluation of covalent inhibitors on purified hCatK; assay type: biochemical; settings: 100 pM hCatK, 4 μM Z-FR-AMC, 26° C., reaction started by addition of CatK; for Ki: read-out: Kl
Description: The reaction kinetics of irreversible covalent inhibitor compounds may be assed in the following manner. Inhibitors (200 nL, 100× final concentration in DMSO) were diluted in reaction buffer (10 μL). Fluorogenic substrate (5 μL, 4× final concentration) was added and the reaction was started by addition of Cathepsin (5 μL, 4× final concentration). Fluorescence intensity was measured every 2 minutes for 60 minutes and fitted to equation I to obtain the Kobs. The obtained values were plotted against the inhibitor concentration and fitted to equation II to obtain kinetic parameters Kinact (rate of covalent bond formation) and Ki.
Kinetic evaluation of irreversible covalent inhibitors was conducted by following the progress curve of inhibition when the hydrolysis of substrate is started by addition of the enzyme (instead of incubating the protease with the inhibitor prior to addition of the substrate). From this curve the maximum rate of covalent bond formation (Kinact) could be determined (Table 4).

Cathepsin K = target: T2, Cathepsin K (Homo sapiens, UniProt P43235); assay: LC-MS of intact CatK and CatK-inhibitor complexes; assay type: binding
T2 sequence (P43235 115-329): T1 sequence (P43235 115-329)
Description: The masses were determined from deconvoluted electrospray ionization mass spectra of CatK complexes. FIG. 4A to FIG. 4E each provide the result for a sample. In each of these FIGS. 4A to 4E the first panel provides the UPLC chromatogram, the second panel provides the electrospray ionization mass spectrum, and the third panel provides the corresponding deconvoluted electrospray ionization mass spectrum (average isotopes) with an indication of the measured mass of the predominant species. FIG. 4A provides the results obtained for intact CatK. FIG. 4B provides the results obtained for CatK.
Cathepsin K (3 μM) in reaction buffer ([…]) was incubated with inhibitor (100 μM) at 37° C. for 6 hours prior to analysis. 1 μL injections of the sample were made onto a XEVO-G2XSQTOF#YEA928 UPLC-MS system with a Waters Acquity CM detector. Chromatographic separation was carried out on a ACQUITY UPLC® Protein BEH C4 Column over a 12 minute gradient elution of 2% to 100% acetonitrile in water (0.1% formic acid) at a flow rate of 0.500 mL/min. For the first 4 minutes the flow was diverted to the waste to avoid contamination of the MS with high concentrations of buffer components. After 4 minutes, the elution flow was ionized with an ESI ionization source and measured on a XEVO-G2XSQTOF. The results were analyzed using MassLynx V4.1. The total mass of the complex was obtained by deconvolution of electrospray ionization mass spectrum envelope (average isotopes) with the MaxEnt1 function.
Cathepsin K was incubated with ODN, 4, 5 or 6 for 6 h to allow full covalent bond formation and submitted for measurement without any digestion steps, according to the method for LC-MS for intact CatK and CatK-inhibitor complexes described in the assays section above.

SMILES | IC50 (hCatK [1]) [nM] | IC50 (hCatS) [nM] | IC50 (hCatV) [nM] | IC50 (hCatL) [nM] | IC50 (hCatB) [nM] | selectivity for CatK over structurally related human Cathepsins (hCatK [1]; in words, from Table 2) | reversibility of hCatK inhibition (hCatK [2]) | kinact/Kl (hCatK [3]) [M⁻¹ s⁻¹] | Ki (hCatK [3]) [nM] | kinact (hCatK [3]; read-out: kinact (converted)) [s⁻¹] | formation of covalent CatK-inhibitor complex (Cathepsin K; 6 h incubation, intact protein LC-MS) | Measured mass complex (Cathepsin K; CatK 3 μM, inhibitor 100 μM, 37° C., 6 h, deconvoluted ESI mass) | kinact (hCatK [3]) [s⁻¹]
CC(C)(F)C[C@H](N[C@@H](c1ccc(-c2ccc(S(C)(=O)=O)cc2)cc1)C(F)(F)F)C(=O)NCC#N [Compound 2, (S)—N-(cyanomethyl)-4-fluoro-4-methyl-2-(((S)-2,2,2-trifluoro-1-(4′-(methylsulfonyl)-[1,1′-biphenyl]-4-yl)ethyl)amino)pentanamide, reference compound] | 0.57 ± 0.009 | 17.8 ± 0.303 | 909 ± 105 |  |  |  |  |  |  |  |  |  | 
C#CC1(NC(=O)[C@H](CC(C)(C)F)N[C@@H](c2ccc(-c3ccc(S(C)(=O)=O)cc3)cc2)C(F)(F)F)CC1 [Compound 3, (S)—N-(1-ethynylcyclopropyl)-4-fluoro-4-methyl-2-(((S)-2,2,2-trifluoro-1-(4′-(methylsulfonyl)-[1,1′-biphenyl]-4-yl)ethyl)amino)pentanamide] | 26200 ± 2240 | > 100000 | > 100000 | > 100000 | > 100000 |  |  |  |  |  |  |  | 
CC(C)(F)C[C@H](N[C@@H](c1ccc(-c2ccc(S(C)(=O)=O)cc2)cc1)C(F)(F)F)C(=O)NCC#CBr [Compound 6, (S)—N-(3-bromoprop-2-yn-1-yl)-4-fluoro-4-methyl-2-(((S)-2,2,2-trifluoro-1-(4′-(methylsulfonyl)-[1,1′-biphenyl]-4-yl)ethyl)amino)pentanamide] | 46.9 ± 1.81 | 55.4 ± 2.94 | 16.2 ± 0.883 | 102 ± 5.14 | 98.6 ± 5.88 | all selectivity is lost | irreversible | 1650 | 193 | 0.000317 | formation of a covalent hCatK—inhibitor complex; also recorded: covalent complex formed | 24296 | 
CC(C)C[C@H](NC(=O)[C@H]1O[C@@H]1C(=O)O)C(=O)NCCCCN=C(N)N [Compound E-64, reference compound] | 1.9 ± 0.032 |  |  | 3.5 ± 0.22 |  |  |  | 117000 | 11.4 |  |  |  | 0.00135
